Assay results taken from US20150074835A1, “TRANSGENIC MOUSE EXPRESSING HUMAN LIPOPROTEIN (A) WITH DISABLED VITAMIN C GENE AND ITS USE AS A DISEASE TREATMENT MODEL” (priority 2013, published 2015).

Test system: Lpa+Gulo (−/−) mouse
Assay: Lipoprotein-cholesterol, apo(a) particle and apoB-100 particle modulation (SPIFE / IFE of sera) under ascorbic acid supplementation
Assay type: in vivo
Conditions: 30 mg/L, 60 mg/L or 150 mg/L ascorbic acid in drinking water in addition to 500 ppm vitamin C in food (full supplementation); FIG. 6-8
Experimental: SPIFE Cholesterol Profiling (FIG. 2): The presence of complete Lp(a) lipoprotein particles in the Lp(a)+GULO(−/−) transgenic mouse serum was confirmed using the electrophoresis method with Helena (Beaumont, Tex.) SPIFE Cholesterol Profiling and Immunofixation electrophoresis (IFE). Immunofixation Electrophoresis (IFE) using the mouse sera was conducted on individual apo(a) (FIG. 3) containing particles and human apoB-100 containing particles (FIG. 4) as well, using human specific apo(a) and apoB-100 antibodies at Health Diagnostic Laboratory, Inc. (Richmond, Va.). The bands represent apo(a) and apoB-100 protein respectively in transgenic mouse and visualization of the same in serum derived from female and male mouse. Lipoprotein-cholesterol, Apo(a) particle, and ApoB-100 particle Modulation (FIG. 6, FIG. 7, and FIG. 8): The analysis was conducted on mouse sera from the Lpa+Gulo (−/−)mouse supplemented with either 30 mg/L, 60 mg/L or 150 mg/L of ascorbic acid provided in drinking water in addition to 500 ppm vitamin C provided in food (full supplementation). […] Sample order in FIGS. 6-8 correspond to the following key, with 30 vc referring to 30 mg/L Vitamin C group, 60 vc referring to 60 mg/L Vitamin C group, and sc referring to fully supplemented (150 mg/L Vitamin C+500 ppm Vitamin C in food) control group. The first three wells of each row were not used.

Compound: O=C1O[C@H]([C@@H](O)CO)C(O)=C1O [ascorbate, ascorbic acid]
- modulation of the whole spectrum of lipoprotein cholesterols and/or lipoprotein particles in mouse sera: could be modulated
